IC50 data for nine compounds are collected here from ChEMBL document CHEMBL1152374, “Regioselective synthesis of methylated epigallocatechin gallate via nitrobenzenesulfonyl (Ns) protecting group” (Bioorg Med Chem Lett, 2009).

Some results are limits rather than exact numbers.

Assay [1] addresses Matrix metalloproteinase-14 (Homo sapiens, UniProt P50281). The experiment in a line: Inhibition of human recombinant MT1-MMP expressed in Escherichia coli by fluorogenic peptide cleavage assay.
Assay [2] has as its target T1, Matrilysin (Homo sapiens, UniProt P09237).
T1 sequence (P09237 whole entry): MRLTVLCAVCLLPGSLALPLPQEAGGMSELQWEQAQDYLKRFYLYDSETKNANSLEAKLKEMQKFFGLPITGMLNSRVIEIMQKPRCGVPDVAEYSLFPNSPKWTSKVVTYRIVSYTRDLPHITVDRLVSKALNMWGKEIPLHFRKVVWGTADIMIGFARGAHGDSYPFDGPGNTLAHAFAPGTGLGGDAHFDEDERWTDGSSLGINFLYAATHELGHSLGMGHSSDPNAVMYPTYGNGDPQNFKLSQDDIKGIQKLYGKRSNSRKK
The experiment in a line: Inhibition of human recombinant MMP7 expressed in Escherichia coli by fluorogenic peptide cleavage assay.

For assay [3], the target named is 72 kDa type IV collagenase (Homo sapiens, UniProt P08253). The experiment in a line: Inhibition of human recombinant MMP2 expressed in Escherichia coli by fluorogenic peptide cleavage assay.
Sequence of 72 kDa type IV collagenase (P08253 whole entry): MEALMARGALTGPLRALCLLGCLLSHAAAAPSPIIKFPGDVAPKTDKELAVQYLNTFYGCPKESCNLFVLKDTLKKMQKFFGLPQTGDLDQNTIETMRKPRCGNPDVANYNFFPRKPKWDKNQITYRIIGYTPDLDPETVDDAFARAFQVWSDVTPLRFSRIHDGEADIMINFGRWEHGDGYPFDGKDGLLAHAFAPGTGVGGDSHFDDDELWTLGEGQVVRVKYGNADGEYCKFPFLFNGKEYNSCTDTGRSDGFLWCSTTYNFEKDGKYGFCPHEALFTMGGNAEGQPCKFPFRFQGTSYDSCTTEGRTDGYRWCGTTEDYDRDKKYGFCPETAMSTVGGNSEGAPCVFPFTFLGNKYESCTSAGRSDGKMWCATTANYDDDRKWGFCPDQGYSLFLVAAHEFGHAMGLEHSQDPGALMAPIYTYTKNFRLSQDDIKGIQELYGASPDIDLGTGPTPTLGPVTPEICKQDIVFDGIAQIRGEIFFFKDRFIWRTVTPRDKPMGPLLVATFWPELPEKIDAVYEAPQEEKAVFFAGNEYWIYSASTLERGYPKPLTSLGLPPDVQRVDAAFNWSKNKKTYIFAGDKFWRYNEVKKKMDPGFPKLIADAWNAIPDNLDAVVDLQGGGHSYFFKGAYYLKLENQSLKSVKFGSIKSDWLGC

For `COc1cc(C(=O)O[C@@H]2Cc3c(O)cc(O)cc3O[C@@H]2c2ccc(O)c(O)c2)cc(O)c1O`, the IC50 – broadly, the concentration at which inhibition is half-maximal – in assay [1] was 15.6 µM; in assay [2] it was greater than 100 µM; in assay [3] it was 88 µM.
Regarding `COc1c(O)cc(C(=O)O[C@@H]2Cc3c(O)cc(O)cc3O[C@@H]2c2ccc(O)c(O)c2)cc1O`, the results for the IC50 in assay [1], in assay [2] and in assay [3] were 3.7 µM, greater than 100 µM and 34 µM, respectively.
Turning to `COc1cc(C(=O)O[C@@H]2Cc3c(O)cc(O)cc3O[C@H]2c2cc(O)c(O)c(O)c2)cc(O)c1O`, the IC50 was found to be 3.1 µM in assay [1], 20 µM in assay [2] and 5.4 µM in assay [3].
Taken in the same sequence, the figures for `COc1c(O)cc(C(=O)O[C@@H]2Cc3c(O)cc(O)cc3O[C@H]2c2cc(O)c(O)c(O)c2)cc1O` were 10.5 µM, 32 µM and 19 µM.
The like results for `COc1cc(C(=O)O[C@H]2Cc3c(O)cc(O)cc3O[C@@H]2c2ccc(O)c(O)c2)cc(O)c1O` were, in that order, 52 µM, greater than 100 µM and 28 µM.
The like results for `COc1c(O)cc(C(=O)O[C@H]2Cc3c(O)cc(O)cc3O[C@@H]2c2ccc(O)c(O)c2)cc1O` were, in that order, greater than 100 µM, greater than 100 µM and 22 µM.
For `COc1c(O)cc(C(=O)O[C@@H]2Cc3c(O)cc(O)cc3O[C@@H]2c2cc(O)c(O)c(O)c2)cc1O`, the figures for the IC50 in assay [1], in assay [2] and in assay [3] were 12.5 µM, 72 µM and 18.7 µM, respectively.
The like results for `COc1cc(C(=O)O[C@@H]2Cc3c(O)cc(O)cc3O[C@@H]2c2cc(O)c(O)c(O)c2)cc(O)c1O` were, in that order, 1.7 µM, 20 µM and 8.7 µM.
Regarding `O=C(O[C@@H]1Cc2c(O)cc(O)cc2O[C@@H]1c1cc(O)c(O)c(O)c1)c1cc(O)c(O)c(O)c1` [EPIGALOCATECHIN GALLATE], the IC50 is 6.8 µM in assay [1], 21.5 µM in assay [2] and 9.6 µM in assay [3].
